This note sets out measurements from article PMC5218480 (PLoS ONE, 2017).

The assay has as its system MV-4-11 cells. The assay can be described thus: Gene expression microarray analysis (Affymetrix PrimeView) and GSEA. The assay is classed as cell-based, human. Set-up: RFU PODN (11730768_x_at) / Fold change /veh PODN (11730768_x_at) / RFU LINC00158 (11744669_a_at) / Fold change /veh LINC00158 (11744669_a_at) / RFU DUSP10 (11751237_a_at) / Fold change /veh DUSP10 (11751237_a_at) / RFU ID3 (11757404_x_at) / Fold change /veh ID3 (11757404_x_at) / RFU PLEKHG5 (11737974_s_at) / Fold change /veh PLEKHG5 (11737974_s_at) / RFU LRRC4B (11730491_at) / Fold change /veh LRRC4B (11730491_at) / RFU GIMAP4 (11747438_a_at) / Fold change /veh GIMAP4 (11747438_a_at) / RFU KRT8 (11758183_x_at) / Fold change /veh KRT8 (11758183_x_at) / RFU CNN1 (11734310_a_at) / Fold change /veh CNN1 (11734310_a_at) / RFU VPS37D (11726825_at) / Fold change /veh VPS37D (11726825_at) / RFU C10orf10 (11716522_x_at) / Fold change /veh C10orf10 (11716522_x_at) / RFU KIR2DL2 /// KIR2DL4 /// KIR2DL5A /// KIR2DL5B /// KIR2DS1 /// KIR2DS2 /// KIR2DS3 /// KIR2DS4 /// KIR3DL3 /// KIR3DL3 /// KIR3DS1 (11738374_at) / Fold change /veh KIR2DL2 /// KIR2DL4 /// KIR2DL5A /// KIR2DL5B /// KIR2DS1 /// KIR2DS2 /// KIR2DS3 /// KIR2DS4 /// KIR3DL3 /// KIR3DL3 /// KIR3DS1 (11738374_at) / RFU C1QL1 (11718748_at) / Fold change /veh C1QL1 (11718748_at) / RFU TMPRSS4 (11747572_a_at) / Fold change /veh TMPRSS4 (11747572_a_at) / RFU HAMP (11756126_x_at) / Fold change /veh HAMP (11756126_x_at) / RFU RNFT2 (11725882_a_at) / Fold change /veh RNFT2 (11725882_a_at) / RFU NR4A2 (11747474_a_at) / Fold change /veh NR4A2 (11747474_a_at) / RFU ABCC12 (11746883_a_at) / Fold change /veh ABCC12 (11746883_a_at) / RFU TMEM136 (11760407_x_at) / Fold change /veh TMEM136 (11760407_x_at) / RFU CLDN22 /// WWC2 (11732394_at) / Fold change /veh CLDN22 /// WWC2 (11732394_at) / RFU HLA-DPB1 (11760878_x_at) / Fold change /veh HLA-DPB1 (11760878_x_at) / RFU SPINT1 (11716480_a_at) / Fold change /veh SPINT1 (11716480_a_at) / RFU GAP43 (11754022_s_at) / Fold change /veh GAP43 (11754022_s_at) / RFU A4GNT (11735810_at) / Fold change /veh A4GNT (11735810_at) / RFU PRB3 (11715151_x_at) / Fold change /veh PRB3 (11715151_x_at) / RFU TUBB4B (11761932_at) / Fold change /veh TUBB4B (11761932_at) / RFU CAPN14 (11732068_a_at) / Fold change /veh CAPN14 (11732068_a_at) / RFU TMCC2 (11721928_a_at) / Fold change /veh TMCC2 (11721928_a_at) / RFU IRGQ (11745062_a_at) / Fold change /veh IRGQ (11745062_a_at) / RFU FAM174B (11720279_a_at) / Fold change /veh FAM174B (11720279_a_at) / RFU TMPRSS4 (11748680_a_at) / Fold change /veh TMPRSS4 (11748680_a_at) / RFU FAM212B (11763350_a_at) / Fold change /veh FAM212B (11763350_a_at) / RFU PLEKHG5 (11743358_a_at) / Fold change /veh PLEKHG5 (11743358_a_at) / RFU ZSCAN30 (11745921_a_at) / Fold change /veh ZSCAN30 (11745921_a_at) / RFU CMKLR1 (11741424_a_at) / Fold change /veh CMKLR1 (11741424_a_at) / RFU LOC101060620 /// MAPK8IP1 (11723275_at) / Fold change /veh LOC101060620 /// MAPK8IP1 (11723275_at) / RFU SPTSSB (11747773_x_at) / Fold change /veh SPTSSB (11747773_x_at) / RFU PRSS12 (11739890_at) / Fold change /veh PRSS12 (11739890_at) / RFU BIN1 (11741810_x_at) / Fold change /veh BIN1 (11741810_x_at) / RFU WNT11 (11732464_a_at) / Fold change /veh WNT11 (11732464_a_at) / RFU C10orf10 (11716521_a_at) / Fold change /veh C10orf10 (11716521_a_at) / RFU C5orf56 (11738089_at) / Fold change /veh C5orf56 (11738089_at) / RFU CYB561 (11721691_x_at) / Fold change /veh CYB561 (11721691_x_at) / RFU ANKRD19P (11752326_a_at) / Fold change /veh ANKRD19P (11752326_a_at) / RFU OR2T12 /// OR2T33 /// OR2T8 (11738714_s_at) / Fold change /veh OR2T12 /// OR2T33 /// OR2T8 (11738714_s_at) / RFU VCAN (11748164_a_at) / Fold change /veh VCAN (11748164_a_at) / RFU JSRP1 (11732532_at) / Fold change /veh JSRP1 (11732532_at) / RFU KRTAP10-11 (11738290_x_at) / Fold change /veh KRTAP10-11 (11738290_x_at) / RFU MYO3A (11730013_a_at) / Fold change /veh MYO3A (11730013_a_at) / RFU EBF3 (11725865_a_at) / Fold change /veh EBF3 (11725865_a_at) / RFU CAMK2N1 (11719241_x_at) / Fold change /veh CAMK2N1 (11719241_x_at) / RFU C5orf56 (11738088_a_at) / Fold change /veh C5orf56 (11738088_a_at) / RFU OLFML3 (11715873_a_at) / Fold change /veh OLFML3 (11715873_a_at) / RFU LOC100653217 /// NTM (11731650_a_at) / Fold change /veh LOC100653217 /// NTM (11731650_a_at) / RFU MAPK11 (11762145_a_at) / Fold change /veh MAPK11 (11762145_a_at) / RFU FIZ1 (11724087_x_at) / Fold change /veh FIZ1 (11724087_x_at) / RFU OASL (11726364_x_at) / Fold change /veh OASL (11726364_x_at) / RFU SOX15 (11748057_x_at) / Fold change /veh SOX15 (11748057_x_at) / RFU CD79A (11719716_a_at) / Fold change /veh CD79A (11719716_a_at) / RFU HIST1H1D (11736915_at) / Fold change /veh HIST1H1D (11736915_at) / RFU CASKIN2 (11723855_a_at) / Fold change /veh CASKIN2 (11723855_a_at) / RFU LOC730098 (11760151_x_at) / Fold change /veh LOC730098 (11760151_x_at) / RFU OR4N2 (11742367_at) / Fold change /veh OR4N2 (11742367_at) / RFU PRRT2 (11749266_a_at) / Fold change /veh PRRT2 (11749266_a_at) / RFU SNX32 (11753110_a_at) / Fold change /veh SNX32 (11753110_a_at) / RFU CDHR5 (11726645_a_at) / Fold change /veh CDHR5 (11726645_a_at) / RFU RCAN1 (11760418_a_at) / Fold change /veh RCAN1 (11760418_a_at) / RFU FAM167A (11723789_a_at) / Fold change /veh FAM167A (11723789_a_at) / RFU FAM26E (11764081_at) / Fold change /veh FAM26E (11764081_at) / RFU ISYNA1 (11749810_s_at) / Fold change /veh ISYNA1 (11749810_s_at) / RFU ACY1 (11761880_at) / Fold change /veh ACY1 (11761880_at) / RFU 11764098_at / Fold change /veh 11764098_at / RFU SAMD14 (11745864_x_at) / Fold change /veh SAMD14 (11745864_x_at) / RFU NPB (11741838_a_at) / Fold change /veh NPB (11741838_a_at) / RFU TMPRSS6 (11731388_a_at) / Fold change /veh TMPRSS6 (11731388_a_at) / RFU KRTAP10-2 (11738614_at) / Fold change /veh KRTAP10-2 (11738614_at) / RFU ARHGAP8 /// PRR5-ARHGAP8 (11727945_x_at) / Fold change /veh ARHGAP8 /// PRR5-ARHGAP8 (11727945_x_at) / RFU KRTAP5-7 /// NADSYN1 (11734609_at) / Fold change /veh KRTAP5-7 /// NADSYN1 (11734609_at) / RFU RASL12 (11751679_a_at) / Fold change /veh RASL12 (11751679_a_at) / RFU CDKN2B (11736163_a_at) / Fold change /veh CDKN2B (11736163_a_at) / RFU PRF1 (11729649_at) / Fold change /veh PRF1 (11729649_at) / RFU, ZNF638 /// ZNF638-IT1 / Fold change vs veh, ZNF638 /// ZNF638-IT1 / RFU, PANK3 / Fold change vs veh, PANK3 / RFU, SH3YL1 / Fold change vs veh, SH3YL1 / RFU, ZEB2 / Fold change vs veh, ZEB2 / RFU, NRIP1 / Fold change vs veh, NRIP1 / RFU, PTTG1IP / Fold change vs veh, PTTG1IP / RFU, CAPN2 / Fold change vs veh, CAPN2 / RFU, MED14 / Fold change vs veh, MED14 / RFU, SNORA58 / Fold change vs veh, SNORA58 / RFU, C1orf63 / Fold change vs veh, C1orf63 / RFU, LRRFIP1 / Fold change vs veh, LRRFIP1 / RFU, NDUFAF7 / Fold change vs veh, NDUFAF7 / RFU, SLC12A2 / Fold change vs veh, SLC12A2 / RFU, IBTK / Fold change vs veh, IBTK / RFU, ESF1 / Fold change vs veh, ESF1 / Fold change vs veh, TMEM50B / RFU, TAOK1 / Fold change vs veh, TAOK1 / RFU, ACBD3 / Fold change vs veh, ACBD3 / RFU, TMA16 / Fold change vs veh, TMA16 / RFU, RWDD3 / Fold change vs veh, RWDD3 / RFU, BCAT1 / Fold change vs veh, BCAT1 / RFU, EDEM3 / Fold change vs veh, EDEM3 / RFU, TMEM33 / Fold change vs veh, TMEM33 / RFU, WDR75 / Fold change vs veh, WDR75 / RFU, AHCTF1 / Fold change vs veh, AHCTF1 / RFU, TFRC / Fold change vs veh, TFRC / RFU, ZDHHC17 / Fold change vs veh, ZDHHC17 / RFU, NOM1 / Fold change vs veh, NOM1 / RFU, ARL8B / Fold change vs veh, ARL8B / RFU, ZBTB11 / Fold change vs veh, ZBTB11 / RFU, TAMM41 / Fold change vs veh, TAMM41 / RFU, KIAA1704 /// LOC100996395 / Fold change vs veh, KIAA1704 /// LOC100996395 / RFU, ING1 / Fold change vs veh, ING1 / RFU, TRMT61B / Fold change vs veh, TRMT61B / RFU, FUBP3 / Fold change vs veh, FUBP3 / RFU, TP53 / Fold change vs veh, TP53 / RFU, TNKS2 / Fold change vs veh, TNKS2 / RFU, ZFP14 / Fold change vs veh, ZFP14 / RFU, ACTR2 / Fold change vs veh, ACTR2 / RFU, PPP3R1 / Fold change vs veh, PPP3R1 / RFU, PIK3R1 / Fold change vs veh, PIK3R1 / RFU, HNRNPA1 / Fold change vs veh, HNRNPA1 / RFU, RNF170 / Fold change vs veh, RNF170 / RFU, ZNF28 / Fold change vs veh, ZNF28 / RFU, RNGTT / Fold change vs veh, RNGTT / RFU, OGT / Fold change vs veh, OGT / RFU, BRD1 / Fold change vs veh, BRD1 / RFU, MARS / Fold change vs veh, MARS / RFU, ZNF655 / Fold change vs veh, ZNF655 / RFU, FAHD1 / Fold change vs veh, FAHD1 / RFU, BDP1 / Fold change vs veh, BDP1 / RFU, LRRCC1 / Fold change vs veh, LRRCC1 / RFU, ARID1A / Fold change vs veh, ARID1A / RFU, ZNF146 / Fold change vs veh, ZNF146 / RFU, ZNF330 / Fold change vs veh, ZNF330 / RFU, GPN3 / Fold change vs veh, GPN3 / RFU, C9orf123 / Fold change vs veh, C9orf123 / RFU, N4BP2L2 / Fold change vs veh, N4BP2L2 / RFU, ARFIP1 / Fold change vs veh, ARFIP1 / RFU, FAM179B / Fold change vs veh, FAM179B / RFU, BCL10 / Fold change vs veh, BCL10 / RFU, UHRF1BP1L / Fold change vs veh, UHRF1BP1L / RFU, BET1 / Fold change vs veh, BET1 / RFU, CNOT2 / Fold change vs veh, CNOT2 / RFU, ZNF268 / Fold change vs veh, ZNF268 / Fold change vs veh, ZNF507 / RFU, DGCR2 / Fold change vs veh, DGCR2 / RFU, WDSUB1 / Fold change vs veh, WDSUB1 / Fold change vs veh, HSP90B1 /// MIR3652 / RFU, ADSS / Fold change vs veh, ADSS / RFU, GK / Fold change vs veh, GK / RFU, ZNF148 / Fold change vs veh, ZNF148 / RFU, TAF9 / Fold change vs veh, TAF9 / RFU, SLC1A5 / Fold change vs veh, SLC1A5 / RFU, SLMO2 / Fold change vs veh, SLMO2 / RFU, ABCC4 / Fold change vs veh, ABCC4 / RFU, LOC101060439 /// RAP1B / Fold change vs veh, LOC101060439 /// RAP1B / RFU, RFX7 / Fold change vs veh, RFX7 / RFU, GTPBP10 / Fold change vs veh, GTPBP10 / RFU, CNEP1R1 / Fold change vs veh, CNEP1R1 / RFU, BIVM-ERCC5 /// ERCC5 / Fold change vs veh, BIVM-ERCC5 /// ERCC5 / RFU, ILF3 / Fold change vs veh, ILF3 / RFU 11762660_at / Fold change /veh 11762660_at / RFU VCAN (11757783_s_at) / Fold change /veh VCAN (11757783_s_at) / RFU DDX43 (11728927_at) / Fold change /veh DDX43 (11728927_at) / RFU KRT8 (11758188_x_at) / Fold change /veh KRT8 (11758188_x_at) / RFU NKD1 (11759106_at) / Fold change /veh NKD1 (11759106_at) / RFU SRD5A1 (11742802_a_at) / Fold change /veh SRD5A1 (11742802_a_at) / RFU TPSAB1 /// TPSB2 (11721975_s_at) / Fold change /veh TPSAB1 /// TPSB2 (11721975_s_at) / RFU GSTM3 (11746129_a_at) / Fold change /veh GSTM3 (11746129_a_at) / RFU IL23R (11737362_x_at) / Fold change /veh IL23R (11737362_x_at) / RFU TMEM51 (11727254_a_at) / Fold change /veh TMEM51 (11727254_a_at) / RFU PIWIL2 (11732686_x_at) / Fold change /veh PIWIL2 (11732686_x_at) / RFU ORM1 (11744905_x_at) / Fold change /veh ORM1 (11744905_x_at) / RFU CCDC152 (11743942_at) / Fold change /veh CCDC152 (11743942_at) / RFU ECM1 (11717891_a_at) / Fold change /veh ECM1 (11717891_a_at) / RFU IL23R (11748794_a_at) / Fold change /veh IL23R (11748794_a_at) / RFU TNFAIP8L3 (11732012_x_at) / Fold change /veh TNFAIP8L3 (11732012_x_at) / RFU MBOAT4 (11741988_at) / Fold change /veh MBOAT4 (11741988_at) / RFU 11764193_at / Fold change /veh 11764193_at / RFU TMEM53 (11763286_at) / Fold change /veh TMEM53 (11763286_at) / RFU MAGEB2 (11727129_at) / Fold change /veh MAGEB2 (11727129_at) / RFU TMEM200A (11744735_a_at) / Fold change /veh TMEM200A (11744735_a_at) / RFU CCDC152 (11751479_a_at) / Fold change /veh CCDC152 (11751479_a_at) / RFU FAM211A (11726209_a_at) / Fold change /veh FAM211A (11726209_a_at) / RFU RGS16 (11746705_a_at) / Fold change /veh RGS16 (11746705_a_at) / RFU VCAN (11755009_s_at) / Fold change /veh VCAN (11755009_s_at) / RFU RHOB (11743442_s_at) / Fold change /veh RHOB (11743442_s_at) / RFU RGS16 (11720943_a_at) / Fold change /veh RGS16 (11720943_a_at) / RFU RGS16 (11720944_at) / Fold change /veh RGS16 (11720944_at) / RFU, VPS4B / Fold change vs veh, VPS4B / RFU, CREB1 / Fold change vs veh, CREB1 / RFU, DNAJC13 / Fold change vs veh, DNAJC13 / RFU, GNAQ / Fold change vs veh, GNAQ / RFU, CDK5R1 / Fold change vs veh, CDK5R1 / RFU, ZRANB3 / Fold change vs veh, ZRANB3 / RFU, CUL4A / Fold change vs veh, CUL4A / RFU, CCNY / Fold change vs veh, CCNY / RFU, UFL1 / Fold change vs veh, UFL1 / RFU, COG3 / Fold change vs veh, COG3 / RFU, DIAPH2 / Fold change vs veh, DIAPH2 / RFU, SKA2 / Fold change vs veh, SKA2 / RFU, AFF3 / Fold change vs veh, AFF3 / RFU, LMF1 / Fold change vs veh, LMF1 / RFU, IPO11 / Fold change vs veh, IPO11 / RFU, DFFB / Fold change vs veh, DFFB / RFU, FOXP1 / Fold change vs veh, FOXP1 / RFU, CARD8 / Fold change vs veh, CARD8 / RFU, STRN3 / Fold change vs veh, STRN3 / RFU, ADK / Fold change vs veh, ADK / RFU, RASSF2 / Fold change vs veh, RASSF2 / RFU, WIPF1 / Fold change vs veh, WIPF1 / RFU, LARP1B / Fold change vs veh, LARP1B / RFU, RASA1 / Fold change vs veh, RASA1 / RFU, RB1 / Fold change vs veh, RB1 / RFU, PPFIA1 / Fold change vs veh, PPFIA1 / RFU, MAT2A / Fold change vs veh, MAT2A / RFU, CCT5 / Fold change vs veh, CCT5 / RFU, WDR92 / Fold change vs veh, WDR92 / RFU, CUX1 / Fold change vs veh, CUX1 / RFU, TTC7A / Fold change vs veh, TTC7A / RFU, TMEM135 / Fold change vs veh, TMEM135 / RFU, DEPTOR / Fold change vs veh, DEPTOR / RFU, CPM / Fold change vs veh, CPM / RFU, DNAJB6 / Fold change vs veh, DNAJB6 / RFU, CACNA2D3 / Fold change vs veh, CACNA2D3 / RFU, DTX4 / Fold change vs veh, DTX4 / RFU, TFCP2 / Fold change vs veh, TFCP2 / RFU, GMCL1 /// GMCL1P1 / Fold change vs veh, GMCL1 /// GMCL1P1 / RFU, AEBP2 / Fold change vs veh, AEBP2 / RFU, SNHG1 /// SNORD22 /// SNORD25 /// SNORD26 /// SNORD27 /// SNORD28 /// SNORD29 /// SNORD31 / Fold change vs veh, SNHG1 /// SNORD22 /// SNORD25 /// SNORD26 /// SNORD27 /// SNORD28 /// SNORD29 /// SNORD31 / Fold change (Aza/veh), C12orf56 (ProbeSet 11735607_a_at) / Fold change (ACY-1035/veh), C12orf56 (ProbeSet 11735607_a_at) / Fold change (Aza/veh), FGFR1OP (ProbeSet 11751329_s_at) / Fold change (ACY-1035/veh), FGFR1OP (ProbeSet 11751329_s_at) / Fold change (Aza/veh), VPS36 (ProbeSet 11739960_a_at) / Fold change (ACY-1035/veh), VPS36 (ProbeSet 11739960_a_at) / RFU SYPL1 (11715823_x_at) / Fold change /veh SYPL1 (11715823_x_at) / RFU IGFBP7 (11715501_s_at) / Fold change /veh IGFBP7 (11715501_s_at) / RFU REEP3 (11722064_at) / Fold change /veh REEP3 (11722064_at) / RFU IGLL1 (11728026_x_at) / Fold change /veh IGLL1 (11728026_x_at): dose or concentration left out as unconfirmed. The following applies: MV-4-11 cells, 48 hours.

Regarding `Nc1ncn([C@@H]2O[C@H](CO)[C@@H](O)[C@H]2O)c(=O)n1` [azacitidine], the “RFU CYB561 (11721691_x_at)” value was found to be 13.47 RFU.
